Measurements from publication PMC9481533, “Structure-based discovery of small molecules that disaggregate Alzheimer’s disease tissue derived tau fibrils in vitro” (Nature Communications, 2022).
Where “and” joins values, the source holds several entries; their conditions need not be identical. Identical values can stand only once.

How the values were obtained:
Format in all cases: cell-based
MTT cytotoxicity assay = details: mouse, Neuro2a cells, Neuro2a; final small molecule concentration 10 µM; 24 h; vehicle = 100% viable; individual replicates; read-out: MTT cell viability, compound alone, Fig. 3f
Procedure: (§1) In all, 90 µL of Neuro2a cells were plated on clear 96 well plates (Falcon 353072) at 6000 cells per well and given 24 h to adhere to the plate. Subsequent treatment consisted of PHF samples that were co-incubated with or without 100 µM of small molecules for 48 h at 37 °C, with 10 µl applied per well for a final small molecule concentration of 10 µM. After another 24-h incubation at 37 °C, 20 µl of Thiazolyl Blue Tetrazolium Bromide MTT dye (Sigma; 5 mg/ml stock in DPBS) was added to each well and further incubated for 3.5 h at 37 °C. The assay was arrested by replacement of all media with 100% DMSO and transferred to a SpectraMax MF reader. Background 700 nm readings were subtracted from the absorbance readings at 570 nm. Cells treated with 100% DMSO were designated as 0% viable and those treated only with vehicle were designated as 100% viable. Other well readings were normalized to these values.

Neuro2a cells = assay: MTT cytotoxicity assay; details: for MTT cell viability, compound alone, Fig. 3f: Neuro2a, final small molecule concentration 10 µM, 24 h, vehicle = 100% viable, individual replicates, 10 µM
Procedure: as §1

[1] = target: crude AD brain extracts (tau seeds) in HEK293T tau biosensor cells (Homo sapiens, UniProt P10636); assay: Tau biosensor cell seeding assay, screen with crude AD brain extracts; details: 10 μM inhibitor on cells, seeds pre-incubated 16–18 h at 4 °C, individual replicates (n=3), DMSO control 10734.9/12808.5/11145.3
Description: From the in silico screen, compounds were ranked and 46 were selected for further experimental validation based on the total binding energy of the ligand/fibril complex. The experimental assessment consisted of direct measures of fibril disassembly (Fig. 2d, e and Supplementary Table 3) and assessment of the seeding capability of the products of disassembled AD tau fibrils in a biosensor cell assay. Disaggregating molecules that produce active seeds are undesirable for therapy and are excluded from further study. HEK293T cells expressing CFP- or YFP-fused tau are transduced with exogenous AD tau fibrils. Externally applied AD-tau fibrils then induce the aggregation of the endogenous fluorescent tau, resulting in the formation of FRET-positive intracellular aggregates, visible as bright puncta by fluorescence microscopy (Fig. 2f). Automated image analysis of visible puncta provides an objective quantification of seeded aggregation. […] Although biosensors may be limited in reporting structural characteristics of fibril progeny, they offer exquisitely sensitive measures of tau seeding activity—the ability for fibrils to recruit monomeric protein into fibrillar form, which is thought to be the mechanism for tau spreading in AD.
(§2) Human autopsy samples were obtained by the Mayo Clinic Brain Bank and UCLA Pathology Department according to HHS regulations from patients consenting to autopsy. Samples were provided to the researchers of this study as anonymized tissues. For purification of paired helical filaments (PHFs) and straight filaments (SFs) from AD brain tissue, extractions were performed according to the previously published protocol without any modifications. […] For biosensor seeding assays with crude AD brain extracts, fresh-frozen tissue from neuropathologically confirmed AD cases was thawed and cut into a 0.2–0.3 g sections. Tissue was manually homogenized in a 15 ml disposable tube in 1 ml of 50 mM Tris, pH 7.4 with 150 mM NaCl, and then aliquoted to PCR tubes and sonicated in a cuphorn bath for 120 min under 30% power at 4 °C in a recirculating ice water bath, according to reference.
(§3) HEK293T cell lines stably expressing tau-K18 P301S-eYFP were obtained from Marc Diamond[25] and used without further characterization or authentication. […] Inhibitors were dissolved in DMSO. […] After twenty minutes, 10 µl of fibrils were added to 90 µl of tau biosensor cells. The number of seeded aggregates was determined by imaging the entire well of a 96-well plate in triplicate using a Celigo Image Cytometer (Nexcelom) in the YFP channel. The number of aggregates in a given image was determined using an ImageJ 2.3.0[50] script, which subtracts the background fluorescence from unseeded cells, and then counts the number of aggregates as peaks with fluorescence above the background using the built-in Particle Analyzer. The number of aggregates was normalized to the confluence of each well, and dose-response plots were generated by calculating the average and standard deviations from triplicate measurements.

[2] = target: brain-purified AD-tau fibrils in HEK293T tau biosensor cells (Homo sapiens, UniProt P10636); assay: Tau biosensor cell seeding assay, dose-dependent inhibition with brain-purified AD-tau fibrils; details: individual replicates
Procedure: as §2, §3

Chain of brain-purified AD-tau fibrils in HEK293T tau biosensor cells (P10636 623-695 limits assumed): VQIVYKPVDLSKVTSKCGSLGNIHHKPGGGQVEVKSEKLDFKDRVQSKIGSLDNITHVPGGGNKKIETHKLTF
Chain of crude AD brain extracts (tau seeds) in HEK293T tau biosensor cells (P10636 623-695 limits assumed): as above

O=C1c2ccccc2C(=O)N1c1nc2nccc(-c3ccccc3)n2n1 [CNS-2, 2-(7-phenyl[1,2,4]triazolo[1,5-a]pyrimidin-2-yl)-1H-isoindole-1,3(2H)-dione]
viability at 24 h, 10 µM (MTT cytotoxicity assay): 97.5% | MTT cell viability, compound alone, Fig. 3f (Neuro2a cells): 89.5134% and 84.5916%

Cc1cc(C)c(NC(=O)Cn2nc3c4c(cccc4c2=O)-c2ccccc2-3)c(C)c1 [CNS-11, N-mesityl-2-(3-oxoindeno[1,2,3-de]phthalazin-2(3H)-yl)acetamide]
viability at 24 h, 10 µM (MTT cytotoxicity assay): 60.2% | Neuronal cytotoxicity of compound (Neuro2a cells; Neuro 2a (N2a) cells, MTT): significant cytotoxicity | MTT cell viability, compound alone, Fig. 3f (Neuro2a cells): 62.1272% and 57.0691%

Cc1cc(C)cc(N2C(=O)N(c3cccc(Cl)c3)C3CS(=O)(=O)CC32)c1 (stereo not shown) [CNS-12, 1-(3-chlorophenyl)-3-(3,5-dimethylphenyl)tetrahydro-1H-thieno[3,4-d]imidazol-2(3H)-one 5,5-dioxide]
MTT cell viability, compound alone, Fig. 3f (Neuro2a cells): 107.797% and 97.7194% and 77.9839%

O=C(NC1CCN(CCCCC2(C(=O)NCC(F)(F)F)c3ccccc3-c3ccccc32)CC1)c1ccccc1-c1ccc(C(F)(F)F)cc1 [FDA-A2, Lomitipide]
Number of seeded aggregates in tau biosensor cells (normalized to confluence), Fig. 2e ([1]; listed as lomitapide): 1844.31 and 2433.57 and 2611.16 | Number of seeded aggregates, Supp. Fig. 7 ([2]; inhibitor concentration 1 (µM)): 9648.53 and 7383.58 and 7455.51 | Number of seeded aggregates, Supp. Fig. 7 ([2]; inhibitor concentration 2 (µM)): 5514.78 and 9418.9 and 7841.07 | Number of seeded aggregates, Supp. Fig. 7 ([2]; inhibitor concentration 5 (µM)): 11341.6 and 15697.2 and 9575.47 | Number of seeded aggregates, Supp. Fig. 7 ([2]; inhibitor concentration 10 (µM)): 4892.73 and 7401.62 and 3914.28 | Number of seeded aggregates, Supp. Fig. 7 ([2]; inhibitor concentration 40 (µM)): 2.016 and 15.6712 and 4.096

CC(=O)c1ccc(S(=O)(=O)NC(=O)NC2CCCCC2)cc1 [FDA-R-8, Acetohexamide]
Number of seeded aggregates in tau biosensor cells (normalized to confluence), Fig. 2e ([1]; listed as acetohexamide aka Dymelor): 9289.39 and 6525.19 and 13238.7

CC1=C(C/C=C(\C)CCC[C@H](C)CCC[C@H](C)CCCC(C)C)C(=O)c2ccccc2C1=O [FDA-R-9, Phytonadione]
Number of seeded aggregates in tau biosensor cells (normalized to confluence), Fig. 2e [1]: 7414.6 and 8137.54 and 11548.1

CCC(NC(C)C)C(O)c1ccc(O)c(O)c1 (stereo not shown) [FDA-R-14, Isoetharine]
Number of seeded aggregates in tau biosensor cells (normalized to confluence), Fig. 2e ([1]; listed as Isoetharine mesylate): 7986.42 and 10421.3 and 17350.6

CCCCCCCCCC(=O)OCCN1CCN(CCCN2c3ccccc3Sc3ccc(C(F)(F)F)cc32)CC1 [FDA-R-15, Prolixin decanoate]
Number of seeded aggregates in tau biosensor cells (normalized to confluence), Fig. 2e ([1]; listed as Prolixin decanoate aka fluphenazine): 15859.2 and 19243.3 and 27665.8

O=[N+]([O-])O[C@@H]1CO[C@H]2[C@@H]1OC[C@@H]2O [FDA-R-17, Isosorbide Mononitrate]
Number of seeded aggregates in tau biosensor cells (normalized to confluence), Fig. 2e ([1]; listed as isosorbide mononitrate mw): 7858.85 and 13647.5 and 18697.1

CC(C)OC(=O)CCC/C=C\C[C@@H]1[C@@H](/C=C/[C@@H](O)COc2cccc(C(F)(F)F)c2)[C@H](O)C[C@@H]1O [FDA-R-18, Travoprost]
Number of seeded aggregates in tau biosensor cells (normalized to confluence), Fig. 2e [1]: 5152.95 and 6033.26 and 10826.5

C[C@@H]1C/C=C/C=C/C=C/C=C/[C@H](O[C@@H]2O[C@H](C)[C@@H](O)[C@H](N)[C@@H]2O)C[C@@H]2O[C@](O)(C[C@@H](O)C[C@H]3O[C@@H]3/C=C/C(=O)O1)C[C@H](O)[C@H]2C(=O)O [FDA-R-19, Natamycin]
Number of seeded aggregates in tau biosensor cells (normalized to confluence), Fig. 2e [1]: 9211.55 and 6199.61 and 13007.3

O=C(O)c1cc(=O)c2c(OCC(O)COc3cccc4oc(C(=O)O)cc(=O)c34)cccc2o1 [FDA-R-23, Sodium chromoglycate]
Number of seeded aggregates in tau biosensor cells (normalized to confluence), Fig. 2e ([1]; listed as cromolyn sodium): 8238.89 and 9556.51 and 14800.8

CN(C)CCCN1c2ccccc2CCc2ccccc21 [FDA-R-24, Imipramine]
Number of seeded aggregates in tau biosensor cells (normalized to confluence), Fig. 2e [1]: 13643.9

CN(C)S(=O)(=O)c1ccc2c(c1)/C(=C/c1cc3c([nH]1)CCCC3)C(=O)N2 [su6656]
Number of seeded aggregates in tau biosensor cells (normalized to confluence), Fig. 2e [1]: 5170.49 and 6311.14 and 10607
